Data on 34 molecules can be found in patent US20260209214A1, “LSD1 MODULATORS” (RECURSION PHARMACEUTICALS, INC., priority 2022, published 2026).

Like-named read-outs stand apart in the source and are kept apart here.

The experiment has as its target Recombinant human LSD1 (Homo sapiens, UniProt O60341). In words: LSD1 inhibition assay (HTRF LSD1 Histone H3K4 mono-demethylation assay, me1->me0). Type of experiment: biochemical. As to conditions: 20 nM recombinant human LSD1, 95 nM H3K4(me1) biotinylated peptide, 15 min preincubation, 60 min at 25° C. In a few lines: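 HTRF demethylation (me1->me0) read-out: streptavidin-XL665 and anti-H3K4me0 cryptate added after reaction, ratio measured after 90 min dark. Reaction: 95 nM H3K4me1 biotin-peptide, 20 nM LSD1 (15-min compound pre-incubation), 60 min, 25 °C, buffer pH 8.5 plus FAD and DTT; 4-parameter logistic IC50.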
A general note: In TR-FRET formats the signal depends on donor and acceptor labels being close together.

[1] abbreviates: read-out: LSD1 inhibition IC50 (nM range).

With `CN[C@H]1CCN(Cc2cccc(-c3ccc(C#N)c(F)c3)c2C2CC2)C1` [Example 211, 2'-cyclopropyl-3-fluoro-3'-{[(3S)-3-(methylamino)pyrrolidin-1-yl]methyl}-[1,1'-biphenyl]-4-carbonitrile], the half-maximal inhibitory concentration (IC50) (usually the concentration that gives 50% inhibition) under setting [1] was 25 to 100 nM.

For the molecule `N#Cc1ccc(-c2cc(CN3[C@@H]4CC[C@H]3[C@@H](N)C4)ccc2Cl)cc1F` (racemic) [Example 305, 5'-{[(1S,2S,4R)-2-amino-7-azabicyclo[2.2.1]heptan-7-yl]methyl}-2'-chloro-3-fluoro-[1,1'-biphenyl]-4-carbonitrile], the concentration for half-maximal inhibition (IC50) under setting [1] lay in the range of 25 to 100 nM.

`CN[C@@H]1C[C@@H]2CC[C@H]1N2Cc1cccc(-c2ccc(C#N)c(F)c2)c1-c1ccns1` (single isomer, unassigned) [Example 190]: the IC50 under setting [1] was under 10 nM.

Take `CN1CC2(C1)CN(Cc1cccc(-c3ccc(C#N)c(F)c3)c1Cl)C2` [Example 214, CN1CC2(C1)CN(Cc3cccc(c3Cl)c4ccc(C#N)c(F)c4)C2]: the 50% inhibitory concentration (IC50) (LSD1 inhibition IC50 (nM range)) is over 1000 nM.

Take `CN[C@H]1C[C@H]2CC[C@@H]1N2Cc1cccc(-c2ccc(C#N)c(F)c2)c1C1CC1` (racemic) [Example 175]: the IC50 under setting [1] fell in the range of 10 to 25 nM.

For the molecule `CC(c1ccc(N2CCC2)c(-c2ccc(C#N)c(F)c2)c1)C1CNCCO1` (stereo not shown) [Example 76, 2′-(azetidin-1-yl)-3-fluoro-5′-[1-(morpholin-2-yl)ethyl]-[1,1′-biphenyl]-4-carbonitrile], under setting [1], the concentration for half-maximal inhibition (IC50) lay in the range of 100 to 1000 nM.

Consider `CC1(C)CN(Cc2cccc(-c3ccc(C#N)c(F)c3)c2-c2ccns2)CC1N` (stereo not shown) [Example 198, 3'-[(4-amino-3,3-dimethylpyrrolidin-1-yl)methyl]-3-fluoro-2'-(1,2-thiazol-5-yl)-[1,1'-biphenyl]-4-carbonitrile], for which the IC50 under setting [1] was in the range of 10 to 25 nM.

Take `N#Cc1ccc(-c2cccc(CN3[C@@H]4CC[C@H]3[C@@H](N)C4)c2C(F)(F)F)cc1F` (racemic) [Example 200, 3'-{[(1S,2S,4R)-2-amino-7-azabicyclo[2.2.1]heptan-7-yl]methyl}-3-fluoro-2'-(trifluoromethyl)-[1,1'-biphenyl]-4-carbonitrile]: the IC50 under setting [1] is 25 to 100 nM.

As to `N#Cc1ccc(-c2cccc(CC3CNCCCO3)c2-c2ccns2)cc1F` (stereo not shown) [Example 20, 3-fluoro-3′-[(1,4-oxazepan-2-yl)methyl]-2′-(1,2-thiazol-5-yl)-[1,1′-biphenyl]-4-carbonitrile], the half-inhibitory concentration (IC50) under setting [1] is under 10 nM.

As to `N#Cc1ccc(-c2ccc(F)c(CN3[C@@H]4CC[C@H]3[C@@H](N)C4)c2-c2ccns2)cc1F` (racemic) [Example 207, 3'-{[(1S,2S,4R)-2-amino-7-azabicyclo[2.2.1]heptan-7-yl]methyl}-3,4'-difluoro-2'-(1,2-thiazol-5-yl)-[1,1'-biphenyl]-4-carbonitrile], the IC50 under setting [1] was under 10 nM.

With `N#Cc1ccc(-c2cc(CN3C[C@]4(N)CC[C@H]3C4)ccc2N2CCC3(CCOC3)CC2)cc1F` [Example 234, 5'-{[(1S,4S)-4-amino-2-azabicyclo[2.2.1]heptan-2-yl]methyl}-3-fluoro-2'-{2-oxa-8-azaspiro[4.5]decan-8-yl}-[1,1'-biphenyl]-4-carbonitrile], the IC50 under setting [1] was under 10 nM.

With `N#Cc1ccc(-c2cccc(CN3C[C@@]4(N)CC[C@@H]3C4)c2C2CC2)cc1F` [Example 225, 3'-{[(1R,4R)-4-amino-2-azabicyclo[2.2.1]heptan-2-yl]methyl}-2'-cyclopropyl-3-fluoro-[1,1'-biphenyl]-4-carbonitrile], the IC50 under setting [1] is 100 to 1000 nM.

For the molecule `N#Cc1ccc(-c2cccc(COC3CCNC3)c2-c2cnco2)cc1F` (stereo not shown) [Example 154, 3-fluoro-2′-(1,3-oxazol-5-yl)-3′-[(pyrrolidin-3-yloxy)methyl]-[1,1′-biphenyl]-4-carbonitrile], the IC50 under setting [1] was in the range of 10 to 25 nM.

Regarding `CC(C)c1c(CN2[C@@H]3CC[C@H]2[C@@H](N)C3)cccc1-c1ccc(C#N)c(F)c1` (racemic) [Example 220, 3'-{[(1S,2S,4R)-2-amino-7-azabicyclo[2.2.1]heptan-7-yl]methyl}-3-fluoro-2'-(propan-2-yl)-[1,1'-biphenyl]-4-carbonitrile], the half-maximal inhibitory concentration (IC50) under setting [1] is 25 to 100 nM.

Regarding `Cc1cc(CN2C[C@@H]3C[C@H]2CN3C2COC2)c(Cl)c(-c2ccc(C#N)c(F)c2)c1` [Example 345], the IC50 under setting [1] is over 1000 nM.

Consider `N#Cc1ccc(-c2cccc(CC3CNCCO3)c2-c2cnco2)cc1F` (stereo not shown) [Example 47, 3-fluoro-3′-[(morpholin-2-yl)methyl]-2′-(1,3-oxazol-5-yl)-[1,1′-biphenyl]-4-carbonitrile], for which the concentration for half-maximal inhibition (IC50) under setting [1] was 25 to 100 nM.

Regarding `N#Cc1ccc(-c2cc(CN3[C@@H]4CC[C@H]3[C@@H](N)C4)ccc2OCC2CC2)cc1F` (racemic) [Example 311, 5'-{[(1S,2S,4R)-2-amino-7-azabicyclo[2.2.1]heptan-7-yl]methyl}-2'-(cyclopropylmethoxy)-3-fluoro-[1,1'-biphenyl]-4-carbonitrile], the IC50 under setting [1] lay within 10 to 25 nM.

As for `N#Cc1ccc(-c2cccc(CN3C[C@]4(N)CC[C@H]3C4)c2N2CCC2)cc1F` [Example 172, N[C@@]12CC[C@@H](C1)N(Cc3cccc(c4ccc(C#N)c(F)c4)c3N5CCC5)C2], the IC50 under setting [1] fell in the range of 10 to 25 nM.

Consider `N#Cc1ccc(-c2cccc(CN3C[C@]4(N)CC[C@H]3C4)c2-c2cnco2)cc1F` [Example 335, 3'-{[(1S,4S)-4-amino-2-azabicyclo[2.2.1]heptan-2-yl]methyl}-3-fluoro-2'-(1,3-oxazol-5-yl)-[1,1'-biphenyl]-4-carbonitrile], for which the concentration for half-maximal inhibition (IC50) under setting [1] is under 10 nM.

For `C[C@@]1(N)CCN(Cc2cccc(-c3ccc(C#N)c(F)c3)c2C2CC2)C1` [Example 349, 3'-{[(3R)-3-amino-3-methylpyrrolidin-1-yl]methyl}-2'-cyclopropyl-3-fluoro-[1,1'-biphenyl]-4-carbonitrile], the IC50 under setting [1] fell in the range of 100 to 1000 nM.

On to `CN1C[C@@H]2C[C@H]1CN2Cc1cc(-c2ccc(C#N)c(F)c2)cc(N2CCCC2)c1` (stereo in doubt) [Example 300, 2-fluoro-4-[3-[[(1S,4S)-5-methyl-2,5-diazabicyclo[2.2.1]heptan-2-yl]methyl]-5-pyrrolidin-1-yl-phenyl]benzonitrile], for which, under setting [1], the IC50 fell in the range of 100 to 1000 nM.

On to `COc1ccc(-c2ccc(CC3CNCCO3)cc2-c2ccc(C#N)c(F)c2)cc1F` (stereo not shown) [Example 98, 3-fluoro-2′-(3-fluoro-4-methoxyphenyl)-5′-[(morpholin-2-yl)methyl]-[1,1′-biphenyl]-4-carbonitrile], for which the IC50 under setting [1] lay within 100 to 1000 nM.

Regarding `N#Cc1ccc(-c2cccc(CN3[C@@H]4CC[C@H]3[C@@H](N)C4)c2OC(F)F)cc1F` (racemic) [Example 179, 3'-{[(1S,2S,4R)-2-amino-7-azabicyclo[2.2.1]heptan-7-yl]methyl}-2'-(difluoromethoxy)-3-fluoro-[1,1'-biphenyl]-4-carbonitrile], the IC50 under setting [1] fell in the range of 10 to 25 nM.

As for `CN1CCOC(Cc2ccc(N3CCC3)c(-c3ccc(C#N)c(F)c3)c2)C1` (stereo not shown) [Example 146, 2′-(azetidin-1-yl)-3-fluoro-5′-[(4-methylmorpholin-2-yl)methyl]-[1,1′-biphenyl]-4-carbonitrile], under setting [1], the IC50 is over 1000 nM.

`CC1(O)CCN(c2ccc(CC3CNCCO3)cc2-c2ccc(C#N)c(F)c2)CC1` (stereo not shown) [Example 138, 3-fluoro-2′-(4-hydroxy-4-methylpiperidin-1-yl)-5′-[(morpholin-2-yl)methyl]-[1,1′-biphenyl]-4-carbonitrile]: under setting [1], the IC50 fell in the range of 25 to 100 nM.

In the case of `N#Cc1ccc(-c2cc(F)cc(C[C@@H]3CNCCO3)c2-c2ccns2)cc1F` (single isomer, unassigned) [Example 14], the 50% inhibitory concentration (IC50) under setting [1] is 10 to 25 nM.

Turning to `N#Cc1ccc(-c2cccc(CC3CNCCO3)c2-c2cncs2)cc1` (stereo not shown) [Example 34, 3′-[(morpholin-2-yl)methyl]-2′-(1,3-thiazol-5-yl)-[1,1′-biphenyl]-4-carbonitrile], the IC50 under setting [1] was in the range of 10 to 25 nM.

For `N#Cc1ccc(-c2cc(CC3CNCCO3)ccc2N2CC3(CCOCC3)C2)cc1F` (stereo not shown) [Example 62, 3-fluoro-5′-[(morpholin-2-yl)methyl]-2′-{7-oxa-2-azaspiro[3.5]nonan-2-yl}-[1,1′-biphenyl]-4-carbonitrile], the concentration for half-maximal inhibition (IC50) under setting [1] was in the range of 100 to 1000 nM.

With `Cn1ncc2cc(-c3ccc(CC4CNCCO4)cc3-c3ccc(C#N)c(F)c3)cnc21` (stereo not shown) [Example 56, 3-fluoro-2′-{1-methyl-1H-pyrazolo[3,4-b]pyridin-5-yl}-5′-[(morpholin-2-yl)methyl]-[1,1′-biphenyl]-4-carbonitrile], the concentration for half-maximal inhibition (IC50) under setting [1] is 25 to 100 nM.

Regarding `N#Cc1ccc(-c2cccc(CC3CNCCO3)c2C2CC2)cc1F` (stereo not shown) [Example 42, 2′-cyclopropyl-3-fluoro-3′-[(morpholin-2-yl)methyl]-[1,1′-biphenyl]-4-carbonitrile], the IC50 under setting [1] lay within 100 to 1000 nM.

For `Cc1cc(-c2cccc(CC3CNCCO3)c2-c2ccns2)ccc1C#N` (stereo not shown) [Example 43, 3-methyl-3′-[(morpholin-2-yl)methyl]-2′-(1,2-thiazol-5-yl)-[1,1′-biphenyl]-4-carbonitrile], under setting [1], the IC50 lay in the range of 25 to 100 nM.

Regarding `N#Cc1ccc(-c2cccc(CN3[C@H]4CC[C@@H]3[C@H](N)C4)c2-c2ccns2)cc1` (single isomer, unassigned) [Example 187], the IC50 under setting [1] was in the range of 10 to 25 nM.

Consider `CN1CCC12CCN(Cc1c(F)ccc(-c3ccc(C#N)c(F)c3)c1F)C2` (stereo not shown) [Example 290, 2', 3,4'-trifluoro-3'-({1-methyl-1,6-diazaspiro[3.4]octan-6-yl}methyl)-[1,1'-biphenyl]-4-carbonitrile], for which the IC50 under setting [1] is over 1000 nM.

For `N#Cc1ccc(-c2cc(CC3CNCCO3)ccc2N[C@H]2CCCOC2)cc1F` (stereo partly drawn) [Example 123, 3-fluoro-5′-[(morpholin-2-yl)methyl]-2′-{[(3S)-oxan-3-yl]amino}-[1,1′-biphenyl]-4-carbonitrile], the IC50 under setting [1] was over 1000 nM.
